Reference: patent US11365227B2, “Peptide and pharmaceutical compositions of same for use as an antimicrobial and in cancer treatment” (UNIVERSITAT DE VALÈNCIA, priority 2017, dated 2022)
Read-outs that look alike come from different tables or passages of the source. Where a SMILES comes first, the peptide text is derived from it.

How the values were obtained:
[1] = test system: S. aureus; assay: Scanning electron microscopy of S. aureus cells treated with peptides; assay type: cell-based, Staphylococcus aureus subsp. aureus CECT 4013; conditions: 25 μg/mL, 1 h
Method: The cells were prepared in the same way as for the flow cytometry technique and the same aliquots and treatments were performed. The samples were incubated at 37° C. for 1 h. The bacteria were fixed with Karnosky (2.5% paraformaldehyde and 0.5 glutaraldehyde) for 2 h at 4° C. After washing (centrifuging and eliminating the supernatant) they were fixed with 2% osmium tetraoxide for another 2 h, washed again and filtered with a 0.2 μm filter. The cells were then dehydrated in graded ethanol series (30°, 50°, 70°, 90°, 100°) for 10 min in each gradation. To carry out the critical point drying, the ethanol was replaced with liquid CO2, the temperature was increased to accelerate evaporation and the pressure was lowered slowly to conserve the exact shape of the bacteria. Finally, shading with gold palladium was performed for 2 min observing the results in the equipment FEG-SEM HITACHI S4800 at 10 Kv.
Scanning electron microscopy provides high-resolution images used to view the damage caused by the peptides to the bacterial membrane. The cells of S. aureus CECT 4013 were treated with the peptides hBD-3, TcDef3-pep and PaSK at a concentration of 25 μg/mL, for 1 h, and analysed using scanning electron microscopy (FIG. 4). In cells without treatment the circular and uniform form typical of S. aureus was observed, with the intact membrane, while in treated cells various types of morphological alterations can be seen. […] With this treatment small circular structures are observed, smaller than the cells of S. aureus.

[2] = test system: S. aureus; assay: Transmission electron microscopy of S. aureus cells treated with peptides; assay type: cell-based, Staphylococcus aureus subsp. aureus CECT 4013; conditions: 25 μg/mL, 1 h
Method: The samples were prepared in the same way as for scanning electron microscopy, except for the series of graded dehydration with ethanol, in which only the 90° grade was reached. Then the samples were included in resin in 4 steps: ethanol 96°—resin LR-White 2:1 (20 h), ethanol 100°—resin 2:1 (20 h), ethanol 100°—resin 1:2 (20 h) and 100% resin (24 h at 60° C.). After the samples were included in the resin the block was prepared for ultrathin cuts of 60 nm in the equipment Leica UC6 Ultracut Microtome.
Transmission electron microscopy provides high-resolution images which were used to view the ultrastructural damage caused by the peptides inside the bacteria. The cells of S. aureus CECT 4013 were treated with the peptides hBD-3, TcDef3-pep and PaSK at a concentration of 25 μg/mL, for 1 h, and analysed using transmission electron microscopy (FIG. 6). In cells without treatment, an intact cytoplasm membrane (3) and peptidoglycane wall (2) were observed, typical of a Gram+ bacteria as S. aureus, as well as a division septum (1) without malformations, while in treated cells different types of alterations were observed. […] Small size circular structures (9) are observed. These structures show a different electrodensity from cells and lack a cytoplasm membrane and peptidoglycane wall. The biofilm formed by the cells treated with peptides was also observed in the images obtained by transmission electron microscopy (FIG. 7) and it was not observed in the cells treated with human defensin hBD-3 (FIG. 6).

[3] = test system: MDA-MB-231 triple-negative breast cancer cells; assay: Cell viability MTS assay, cytotoxic effect; assay type: cell-based, human; conditions: around 100 μM (400 μg/mL)
Method: (§1) Cell viability was determined by the MTS method. The MDA-MB-231 cells cultured in plates with 96 wells at 37° C. in an atmosphere humidified with 10% CO2 to a density of 5×10^3 cells/well were incubated with different concentrations of the peptide PaSK for 24 h. Then 20 μL were added of the solution MTS/PMS (3-(4,5-dimethylthiazol-2-yl)-5-(3-carboxymethoxyfenyl)-2-(4-sulphophenyl)-2H-tetrazole/phenazine methosulphate) to each well and after incubating for 2 h in the dark the absorbance at 490 nm was read in a plate reader. The percentage reduction in number of cells was calculated according to the formula (1−E/C)×100, where E is the absorbance of the cells treated with the peptide and C is the absorbance of the samples of the control cells.
(§2) The cytotoxic effect of the peptide PaSK has been studied in two cell lines of triple-negative breast cancer cells, one human (MDA-MB-231) and one mouse (4T1), and a line of normal mouse mammary epithelial cells (HC-11). To this end, a cell viability MTS assay was performed, based on the use of a compound derived from tetrazolium that is reduced in live cells to form a soluble coloured product. […]

[4] = Cell viability MTS assay, cytotoxic effect; assay type: cell-based; conditions: mouse, HC-11 normal mammary epithelial cells, approximately 200 μM (700 μg/mL), 0.5% bovine foetal serum
Method: as §1, §2

[5] = test system: MDA-MB-231 cells; assay: Differential proteomic analysis by SWATH; assay type: cell-based, human

In the case of `CC[C@H](C)[C@H](NC(=O)[C@H](CCCNC(=N)N)NC(=O)[C@H](CCCNC(=N)N)NC(=O)[C@H](CCCCN)NC(=O)[C@H](CC(N)=O)NC(=O)[C@H](CS)NC(=O)[C@H](Cc1ccc(O)cc1)NC(=O)CNC(=O)CNC(=O)[C@H](CCCNC(=N)N)NC(=O)[C@H](CCCCN)NC(=O)[C@H](CCCNC(=N)N)NC(=O)[C@H](CCCCN)NC(=O)[C@H](CC(C)C)NC(=O)[C@H](CC(C)C)NC(=O)[C@H](CS)NC(=O)[C@H](Cc1c[nH]cn1)NC(=O)[C@H](C)NC(=O)[C@H](C)NC(=O)[C@H](CS)NC(=O)[C@H](C)NC(=O)[C@H](C)NC(=O)[C@H](Cc1c[nH]cn1)NC(=O)[C@H](CC(N)=O)NC(=O)[C@@H](NC(=O)[C@@H](N)CCCCN)C(C)C)C(=O)N[C@@H](CS)C(=O)N[C@H](C(=O)N[C@@H](CS)C(=O)N[C@@H](CCCNC(=N)N)C(=O)N[C@@H](CC(N)=O)C(=O)O)C(C)C` [PaSK] (H-KVNHAACAAHCLLKRKRGGYCNKRRICVCRN-OH; N-terminus and C-terminus assumed), the “biofilm formation, scanning electron microscopy” value [1] is reported as “biofilm produced”, the “morphological alterations, scanning electron microscopy” value [1] is reported as “complete cell disintegration” and the “ultrastructural damage, transmission electron microscopy” value [2] is reported as “detachments, malformations and thinning of the membrane”. For the same compound, the “cytotoxicity compared with the other cell lines” value [3] was “significantly more cytotoxic”, the mortality at 24 h, 200 μM [4] was roughly 50% and the T/C change ratio [5] was 1.45. It also gave a T/C change ratio ([5]; ASNA_HUMAN, ATPase ASNA1) of 0.21, a T/C change ratio ([5]; BAZ1B_HUMAN, Tyrosine-protein kinase BAZ1B) of 0.31 and a T/C change ratio ([5]; CALD1_HUMAN, Caldesmon) of 0.71. The T/C change ratio ([5]; CDCP1_HUMAN, Protein 1 containing domain CUB) was 1.22, the T/C change ratio ([5]; CK068_HUMAN, UPF0696 protein C11orf68) was 0.83 and the T/C change ratio ([5]; DCUP_HUMAN, Uroporfphyrinogen decarboxylase) was 0.21. The T/C change ratio ([5]; DDX17_HUMAN, Probable DDX17 ATP-dependent RNA helicase) was 0.84, the T/C change ratio ([5]; DENR_HUMAN, Density regulated protein) was 0.31 and the T/C change ratio ([5]; DHX36_HUMAN, DHX36 ATP-dependent RNA helicase) was 0.27. For the same compound, the T/C change ratio ([5]; DPOD1_HUMAN, DNA polymerase delta catalytic subunit) was 0.50, the T/C change ratio ([5]; EIF3B_HUMAN, Eukaryotic translation initiation factor 3B (EIF3B)) was 0.84 and the T/C change ratio ([5]; FXR1_HUMAN, Fragile X mental retardation protein 1) was 0.76. For the same compound, the T/C change ratio ([5]; GPX1_HUMAN, Glutathione peroxidase 1 (GPX1)) was 5.89, the T/C change ratio ([5]; KAD2_HUMAN, Adenylate kinase 2, mitochondrial) was 0.51 and the T/C change ratio ([5]; LARP1_HUMAN, La related protein 1 (LARP1)) was 0.28. For the same compound, the T/C change ratio ([5]; MANF_HUMAN, Mesencephalic astrocyte-derived neurotrophic factor) was 0.63, the T/C change ratio ([5]; MMP14_HUMAN, Matrix metalloprotease-14) was 1.92 and the T/C change ratio ([5]; PYRG1_HUMAN, CTP synthase 1) was 0.82. For the same compound, the T/C change ratio ([5]; RL5_HUMAN, 60 S ribosomal protein L5 (RPSL5)) was 0.60, the T/C change ratio ([5]; RS13_HUMAN, 40S ribosomal protein S13 (RPS13)) was 0.82 and the T/C change ratio ([5]; SDCB1_HUMAN, Sintenin-1) was 1.43. For the same compound, the T/C change ratio ([5]; SET_HUMAN, SET protein) was 0.90, the T/C change ratio ([5]; SH3G1_HUMAN, Endophilin-A2) was 0.63 and the T/C change ratio ([5]; SHLB2_HUMAN, Endophilin-B2) was 0.29. It also gave a T/C change ratio ([5]; SQRD_HUMAN, Sulphide: quinone oxidoreductase (SQRDL), mitochondrial) of 1.30, a T/C change ratio ([5]; TAGL2_HUMAN, Transgelin-2) of 0.75 and a T/C change ratio ([5]; TM9S4_HUMAN, Member 4 of the transmembrane 9 superfamily) of 0.37. For the same compound, the T/C change ratio ([5]; TPM4_HUMAN, Tropomyosin alpha-4 chain) was 0.74, the T/C change ratio ([5]; TRXR1_HUMAN, Thioredoxin reductase 1 (TXNRD1), cytoplasmic) was 1.59 and the T/C change ratio ([5]; U2AF2_HUMAN, U2AF union factor 65 kDa subunit) was 0.31.
